Here are results for three compounds from US11015224B2, “RAF gene fusions” (THE REGENTS OF THE UNIVERSITY OF MICHIGAN, priority 2010, dated 2021).

One assay concerns the target BRAFV600E mutation (Homo sapiens, UniProt P15056, V600E). To be noted: Sala et al. 2008; cited from earlier work.
The subject of assay [1] is DUSP6 or SPRY2 mRNA expression in RWPE cells expressing SLC45A3-BRAF. To be noted: U0126, 10 mM, 2 hours, Keratinocyte-supplement free media, FIG. 11. The method, then: (§1) MEK-ERK signaling pathway analysis. Stable pooled populations of RWPE cells expressing SLC45A3-BRAF or […] were maintained in supplement-free medium without supplements for 2 h. For MEK inhibitor treatments, U0126 (10 μM) was added in the supplement-free keratinocyte medium for 2 h. MEK and ERK activation was assessed by western blot analysis with antibodies to phospho-MEK or ERK and total MEK or ERK antibodies (Cell Signaling Technologies).
(§2) Real Time PCR validation. Quantitative PCR (QPCR) was performed using Power SYBR Green Mastermix (Applied Biosystems) on an Applied Biosystems StepOnePlus Real-Time PCR System. All oligonucleotide primers were obtained from Integrated DNA Technologies and are listed below. The GAPDH primer was used as a control. All assays were performed and repeated twice and results were plotted as average fold change relative to GAPDH.

The subject of assay [2] is DUSP6 or SPRY2 mRNA expression in RWPE cells expressing ESRP1-RAF1. To be noted: U0126, 10 mM, 2 hours, Keratinocyte-supplement free media, FIG. 11. On the procedure: as §1, §2
For assay [3], the system named is RWPE cells stably expressing ESRP1-RAF1. To be noted: sorafenib or U0126 (10 μM), 14 d, FIG. 4c,d. The method, then: (§3) In vitro soft agar growth. For in vitro growth in soft agar, 2 ml of 0.6% SeaPlaque GTG Agarose (Cambrex) dissolved in complete keratinocyte supplement-free medium (Invitrogen) was poured into six-well dishes. After polymerization, a second layer containing 2 ml of 0.4% agar in complete keratinocyte supplement-free medium, and RWPE cells stably expressing SLC45A3-BRAF or ESRP1-RAF 1 (1×10^4 cells per well) were poured on top. The next day, cells were treated with sorafenib or U0126 (10 μM) in 1 ml of supplement-free keratinocyte medium. Soft-agar assay plates were incubated for 14 d at 37° C. MEK inhibitor (U0126) or sorafenib was changed once a week. Each experimental condition was done in triplicate. On day 14, colonies larger than 40 μm in diameter were counted.

Assay [4] deals with RWPE cells stably expressing SLC45A3-BRAF. The conditions noted are these: sorafenib or U0126 (10 μM), 14 d, FIG. 4c,d. On the procedure:
as §3

The test system of assay [5] is MEK and ERK phosphorylation in RWPE cells expressing ESRP1-RAF1. To be noted: U0126 (10 μM) for 2 h, FIG. 4e. On the procedure:
as §1

Assay [6] has as its system MEK½ and ERK½ phosphorylation in BRAFV600E mutation-positive melanoma cell line SK-MEL-94. To be noted: SK-MEL-94 control cell line. On the procedure: as §1
For assay [7], the system named is MEK and ERK phosphorylation in RWPE cells expressing SLC45A3-BRAF. The conditions noted are these: U0126 (10 μM) for 2 h, FIG. 4e. The method, then:
as §1

In assay [8] the test system is RWPE cells expressing SLC45A3-BRAF. To be noted: sorafenib (10 μM) or U0126 (1 or 10 μM), FIG. 4a,b. The method, then: (§4) Cell invasion and proliferation assays. Equal numbers of cells were plated into 96-well plates, and a cell proliferation assay was performed using WST-1 reagent (Roche) following the manufacturer's protocol. For the Boyden chamber Matrigel invasion assay, equal numbers of cells were plated into each Matrigelcoated transwell in the presence of sorafenib or U0126 (Calbiochem) or DMSO (Sigma). Invasion assays were performed as described previously (Kleer, C. G. et al. Proc. Natl. Acad. Sci. USA 100, 11606-11611 (2003); Cao, Q. et al. Oncogene 27, 7274-7284 (2008)).

Assay [9] concerns RWPE cells expressing ESRP1-RAF1. The conditions noted are these: sorafenib (10 μM) or U0126 (1 or 10 μM), FIG. 4a,b. The method, then:
as §4

Assay [10] relates to RWPE cells overexpressing ESRP1-RAF1. The assay is described as follows: Cell proliferation assay (WST-1). In kind it is cell-based, human. To be noted: RWPE cells overexpressing ESRP1-RAF1, FIG. 3d. The text has this:
Cell invasion and proliferation assays.
For orientation: Tetrazolium assays rely on reduction of a dye to a coloured formazan, in cell work by metabolically active cells.

Assay [11] concerns RWPE cells overexpressing SLC45A3-BRAF. The conditions noted are these: FIG. 3c. On the procedure:
as §4

BRAFV600E mutation, sequence (P15056 whole entry V600E): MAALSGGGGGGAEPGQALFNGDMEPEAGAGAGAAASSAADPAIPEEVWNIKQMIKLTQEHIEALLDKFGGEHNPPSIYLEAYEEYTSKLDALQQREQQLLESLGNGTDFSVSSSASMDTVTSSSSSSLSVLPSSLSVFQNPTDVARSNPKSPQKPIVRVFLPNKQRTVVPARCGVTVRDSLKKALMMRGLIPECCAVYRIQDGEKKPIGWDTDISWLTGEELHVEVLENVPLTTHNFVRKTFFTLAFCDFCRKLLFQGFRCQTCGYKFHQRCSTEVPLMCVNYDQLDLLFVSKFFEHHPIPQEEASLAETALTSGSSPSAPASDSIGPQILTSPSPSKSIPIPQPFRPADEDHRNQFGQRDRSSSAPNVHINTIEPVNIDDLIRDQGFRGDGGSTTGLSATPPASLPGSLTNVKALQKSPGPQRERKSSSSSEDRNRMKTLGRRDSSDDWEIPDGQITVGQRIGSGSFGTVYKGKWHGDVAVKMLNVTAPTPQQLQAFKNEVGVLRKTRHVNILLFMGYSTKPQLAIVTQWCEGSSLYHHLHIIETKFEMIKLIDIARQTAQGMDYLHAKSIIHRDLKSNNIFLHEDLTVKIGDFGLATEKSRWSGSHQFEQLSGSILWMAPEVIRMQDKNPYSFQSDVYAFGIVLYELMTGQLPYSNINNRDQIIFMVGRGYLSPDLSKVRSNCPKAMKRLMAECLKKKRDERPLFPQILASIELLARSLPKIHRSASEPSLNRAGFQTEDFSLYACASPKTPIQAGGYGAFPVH

With `CC(C)S(=O)(=O)Nc1ccc(F)c(C(=O)c2c[nH]c3ncc(-c4cccnc4)cc23)c1F` [PLX-4032], at BRAFV600E mutation, the “selectivity for the BRAFV600E mutation” value is recorded as “highly selective”.
As for `N#CC(=C(/N)Sc1ccccc1N)/C(C#N)=C(\N)Sc1ccccc1N` [U0126], the “DUSP6 or SPRY2 mRNA expression” value in assay [1] and in assay [2] was “significantly decreases” in each case. In addition, the “anchorage-independent colony growth in soft agar, sensitivity to inhibitor” value in assay [3] and in assay [4] was “sensitive” each time. Further, the “MEK and ERK phosphorylation, sensitivity to inhibitor” value in [5] and in [7] was “sensitive” each time. Further, the “MEK½ and ERK½ phosphorylation” value in assay [6] was “decreased”. Also, the “fusion-mediated cell invasion, sensitivity to inhibitor” value in assay [8] and in assay [9] was “sensitive” throughout.
As for `CNC(=O)c1cc(Oc2ccc(NC(=O)Nc3ccc(Cl)c(C(F)(F)F)c3)cc2)ccn1` [sorafenib, N-(3-trifluoromethyl-4-chlorophenyl)-N′-(4-(2-methylcarbamoylpyridin-4-yl)oxyphenyl)urea], the “increased cell proliferation, sensitivity to inhibitor” value in [10] and in [11] was “sensitive” throughout. In addition, the “anchorage-independent colony growth in soft agar, sensitivity to inhibitor” value in [3] and in assay [4] was “sensitive” in each case. Besides, the “fusion-mediated cell invasion, sensitivity to inhibitor” value in assay [8] and in assay [9] was “sensitive” throughout.
